{"source": "paper PMC6987146", "about": "“Potent inhibition of HIV replication in primary human cells by novel synthetic polyketides inspired by Aureothin” (Scientific Reports, 2020)", "key": {"HIV integrase": {"biological_target": "T1, HIV integrase (Human immunodeficiency virus type 1 group M subtype B, UniProt P04585)", "T1 construct": "purchased XpressBio", "assay": "HIV Integrase Activity Assay (HIV-1 Integrase Assay Kit)", "assay_type": "biochemical", "conditions": "10 µM", "protocol": "HIV Integrase Activity Assay. To evaluate the inhibitory effect of test compounds to counteract HIV integrase activity, the HIV-1 Integrase Assay Kit (XpressBio) was conducted according to manufacturer’s recommendations. Dolutegravir was used as reference inhibitor."}, "PBMC proteome": {"system": "PBMC proteome", "assay": "Proteomics (LC-MSMS) of PBMCs treated with compound #7, with or without HIV exposure", "assay_type": "cell-based, human", "conditions": "PBMCs from three donors; ≥2-fold change", "protocol": "Stimulated PBMCs or CD4+ cells (5,000,000 cells) were seeded into 12-well plates before compound treatment and inoculation with HIV-1LAI at an MOI of 0.5, followed by 48 h incubation at 37 °C, 5% CO2. HIV inhibition was confirmed by quantifying infectious virus production in LC5-RIC cells as described above. Protein lysates were prepared from cells harvested, washed with PBS and lysed by incubating the cells for 10 min at 4 °C in lysis buffer (100 mM Tris-HCl pH 8.3, 150 mM NaCl, 1% glycerol, 1% NP-40, 0.5% deoxycholate, 0.1% SDS, 0.1% Triton-X100) and centrifuged for 20 min at 4 °C, 16,000 g to clear protein lysates. Protein concentrations were determined by using the Pierce^TM BCA Protein Assay Kit (ThermoFisher Scientific) according to manufacturer’s protocol. The proteomes of PBMCs from three different donors were analysed by LC-MSMS and data enrichment analysis was carried out using GeneRanker (Intrexon). For detailed information see Supplementary Methods.\nAfter measuring the protein concentration of the cell lysates equal total protein amounts (10 µg per sample) were proteolysed with trypsin as described ^4 by a modified filter-aided sample preparation (FASP) procedure ^5.\nData analysis. The results from three donors were regarded as biological replicates. […]"}, "HIV-2MVP10668-93": {"system": "HIV-2MVP10668-93", "assay": "Inhibition of clinical isolate HIV-2 MVP10668-93 in PBMCs", "assay_type": "cell-based, HIV-type 2", "conditions": "Human immunodeficiency virus 2, PBMC", "description": "(§1) Clinical isolates represented the following HIV genotypes: HIV-1MMVP899-87: HIV-type 1, Major group; HIV-1OMVP5180-91: HIV-type 1, Outlier group; HIV-2MVP10668-93: HIV-type 2; HIV-1V13-03413B: HIV-type 1, Major group/B-clade, isolate with multiple drug-resistance mutations. Depicted are the means of three independent experiments with biological triplicates (n = 3; m = 3) and standard deviations (SD).\n(§2) Isolation of primary clinical HIV-isolates HIV-1MMVP899-87, HIV-1OMVP5180-91, HIV-1V13-03413B and HIV-2MVP10668-93 is described in[43]. The HIV-1 M group/B-clade isolate (HIV-1V13-03413B) was isolated from a patient with virological treatment failure. Clinical isolates were produced from HIV infected H9 cells as described.\n(§3) To evaluate anti-HIV efficacies of test compounds in primary human target cells, stimulated PBMCs were seeded in 96-well plates at a density of 500,000 cells per well, different #7concentrations of the compound (serial dilutions) and virus inoculum (MOI of 0.5) added to the PBMCs and cultures incubated for 48 h. Infectious virus production was quantified by transferring 35 µl of supernatant from the PBMC cultures to LC5-RIC cells, seeded in black 96-well plates one day earlier. LC5-RIC cultures were then incubated for 72 h and analysed for DsRed1 reporter expression and anti-HIV activity calculated as described for the EASY-HIT assay."}, "[1]": {"biological_target": "T2, recombinant HIV-1 Protease (Human immunodeficiency virus type 1 group M subtype B, UniProt P04585)", "T2 construct": "100 ng recombinant HIV-1 Protease protein (Abcam) was incubated with compounds; purchased Abcam", "assay": "HIV Protease Activity Assay (fluorogenic substrate)", "assay_type": "biochemical", "conditions": "10 µM", "protocol": "HIV Protease Activity Assay. 100 ng recombinant HIV-1 Protease protein (Abcam) was incubated with compounds diluted in HIV Protease Activity Assay Buffer (0.1 M sodium acetate, 1.0 M sodium chloride, 1.0 mM ethylenediaminetetraacetic acid (EDTA), 1.0 mM dithiothreitol (DTT), 10% dimethyl sulfoxide (DMSO), 1 mg/ml bovine serum albumin (BSA), pH 7.4) for 1 h at room temperature in the dark. After the designated incubation time the mixtures were added to a 2.5 µM solution of HIV Protease Substrate 1 (Sigma-Aldrich) in HIV Protease Activity Assay Buffer prepared in black 96-well plates. The substrate harbours the fluorophore EDANS (5-(2-aminoethylamino)-1-naphthalene sulfonate) and the acceptor chromophore DABCYL (4’-dimethylaminoazobenzene-4-carboxylate) on opposite sides of the cleavage site (Tyr-Pro). Cleavage of the substrate by the HIV-1 protease results in separation of DABCYL and EDANS, eliminating the quenching effects on EDANS fluorescence at 490 nm. After an additional incubation time of 20 min at 37 °C the increase in fluorescence was measured using a fluorescence microplate reader at an excitation filter wavelength of 340 nm and an emission filter wavelength of 490 nm. Saquinavir was used as reference compound."}, "HIV-1OMVP5180-91": {"system": "HIV-1OMVP5180-91", "assay": "Inhibition of clinical isolate HIV-1O MVP5180-91 in PBMCs", "assay_type": "cell-based", "conditions": "PBMC, HIV-type 1, Outlier group", "description": "as §1, §2, §3"}, "HIV-1V13-03413B": {"system": "HIV-1V13-03413B", "assay": "Inhibition of multi-drug-resistant clinical isolate HIV-1 V13-03413B in PBMCs", "assay_type": "cell-based, HIV-type 1", "conditions": "Human immunodeficiency virus 1, PBMC", "description": "as §1, §2, §3"}}, "data": [{"smiles": "COc1oc(C2C/C(=C/C(C)=C/c3ccc(C(F)(F)F)cc3)CO2)c(C)c(=O)c1C", "note": "(stereo not drawn) [compound #7]", "values": [{"measurement": "inhibitory effect on Integrase activity", "setting": "HIV integrase", "value": "no inhibitory effects"}, {"measurement": "proportion of differentially expressed proteins (of total proteins detected)", "setting": "PBMC proteome", "value": "< 10", "unit": "%"}, {"measurement": "IC50", "setting": "HIV-2MVP10668-93; read-out: IC50 value, HIV-2 MVP10668-93", "value": 3.88, "unit": "nM"}, {"measurement": "IC90", "setting": "HIV-2MVP10668-93; read-out: IC90 value, HIV-2 MVP10668-93", "value": 11.7, "unit": "nM"}, {"measurement": "inhibitory effect on Protease activity", "setting": "[1]", "value": "no inhibitory effects"}, {"measurement": "IC50", "setting": "HIV-1OMVP5180-91", "value": 2.88, "unit": "nM"}, {"measurement": "IC90", "setting": "HIV-1OMVP5180-91", "value": 8.65, "unit": "nM"}, {"measurement": "IC50", "setting": "HIV-1V13-03413B; read-out: IC50 value, HIV-1 V13-03413B", "value": 4.2, "unit": "nM"}, {"measurement": "IC90", "setting": "HIV-1V13-03413B; read-out: IC90 value, HIV-1 V13-03413B", "value": 10.5, "unit": "nM"}]}]}
